Assay results reported in patent US20240374492A1, “A SUNSCREEN COMPOSITION COMPRISING AVOBENZONE AND A METHOD FOR PHOTOSTABILIZATION” (ISP Investments LLC, priority 2021, published 2024).

Experiment: Photostability of avobenzone in combination with solvents (UV absorbance profile before and after 10 MED radiation)
Assay type: physicochemical
Details: avobenzone with the solvent; for Stability of Avobenzone: 10 MED radiation, solar simulator, UV absorbance 290-400 nm on PMMA plates; for Stability of avobenzone-solvent combination (UV absorbance profile after 10 MED radiation vs initial, FIG. 1 to FIG. 6): before and after 10 MED radiation
Text: 10 minimal erythemal dose (MED) is a quantified dose of radiation that is known for causing skin damage. UV screening agents will eventually breakdown into smaller molecule after prolonged exposure to UV radiation. This is a common, expected phenomenon however, some UV screening agents will degrade faster within the time a person is exposed to sunlight. If the UV screening agent degrades, it loses the ability to absorb UV radiations and eventually results in a lower absorption profile, that translate into a lower SPF value.
If the absorption profile of a specimen, prepared from a UV screening agent-solvent combination, measured after a predefined exposure of 10 MED radiation, reads similar to that of its initial readings, then the UV screening agent is said to be stable in that particular combination of solvent.
Method of testing photostability: For each test formulations prepared according to Table-1 to Table-7, 1.80 mg/cm^2 of samples were deposited on PMMA (polymethyl methacrylate) plates and spread evenly using finger cots. Three plates were prepared for each product. The initial UV absorbance profile of each slide was measured with a UV-VIS spectrophotometer in the wavelength range of 290-400 nm. Four readings were taken for each slide. The test slides were then exposed to 10 MED radiation using a Solar Light LS1000R3 solar simulator. The slides were then equilibrated at room temperature for 15 minutes, and the UV absorbance profile post radiation was measured. The readings were then plotted to correlate initial absorbance behavior of the specimens to that of post radiation. Any degradation of the UV screening agent will result in a lower absorbance readings compared to that of the initial absorbance profile.
FIG. 1 to FIG. 6 illustrate graphs plotted based on UV absorbance profile measured before and after an exposure of 10 MED radiation on test specimens comprising combination of avobenzone and solvents selected from Table-8.

Stability of Avobenzone	Stability of avobenzone-solvent combination (UV absorbance profile after 10 MED radiation vs initial, FIG. 1 to FIG. 6)	Compound
stable	–	O=C(OCCCc1ccccc1)c1ccccc1 [3-Phenylpropyl Benzoate]
not stable	–	CCCCCC(=O)OCCc1ccccc1 [2-Phenylethyl Hexanoate]
stable	stable	Cc1ccccc1C(=O)OCc1ccccc1 [Benzyl o-toluate]
not stable	highly instable	O=C(OC1CCCCC1)c1ccccc1 [Cyclohexyl Benzoate]
not stable	highly instable	CC(C)(C)c1ccc(C(=O)OCc2ccccc2)cc1 [Benzyl 4-tert-Butylbenzoate]
not stable	–	O=C(OCCc1ccccc1)C1CCCCC1 [2-Phenylethyl Cyclohexanoate]
not stable	–	O=C(OCCC1CCCCC1)c1ccccc1 [2-Cyclohexylethyl Benzoate]
not stable	highly instable	Cc1ccccc1C(=O)OC1CCCCC1 [Cyclohexyl o-toluate]
not stable	–	Cc1ccc(C(=O)OC(C)c2ccccc2)cc1 (stereo not drawn) [1-Phenylethyl p-toluate]
not stable	–	Cc1ccccc1COC(=O)c1ccccc1 [o-Methylbenzyl Benzoate]
not stable	highly instable	CC(CCOC(=O)c1ccccc1)OC(=O)c1ccccc1 (stereo not drawn) [1,3-Butylene glycol Dibenzoate]
not stable	–	Cc1cccc(C(=O)OCc2ccccc2)c1 [Benzyl m-toluate]
not stable	–	Cc1cccc(COC(=O)c2ccccc2)c1 [m-Methylbenzyl Benzoate]
stable	–	O=C(OCc1ccccc1)c1ccccc1 [Benzyl Benzoate]
not stable	–	CCc1ccc(C(=O)OCc2ccccc2)cc1 [Benzyl 4-Ethylbenzoate]
stable	stable	Cc1ccccc1C(=O)OCCc1ccccc1 [2-Phenylethyl o-toluate]
not stable	–	O=C(OCc1ccccc1)c1ccccc1O [Benzyl Salicylate]
not stable	–	CCC(OC(=O)c1ccccc1)c1ccccc1 (stereo not drawn) [1-Phenylpropyl Benzoate]
not stable	–	CCC(=O)OCCc1ccccc1 [2-Phenylethyl Propionate]
not stable	highly instable	CC(COC(=O)c1ccccc1)OC(=O)c1ccccc1 (stereo not drawn) [Propylene glycol Dibenzoate]
not stable	highly instable	C12-C15 alkyl benzoate
stable	stable	O=C(OCCc1ccccc1)c1ccccc1 [Phenethyl benzoate]

Compound	Stability of Avobenzone	Stability of avobenzone-solvent combination (UV absorbance profile after 10 MED radiation vs initial, FIG. 1 to FIG. 6)
CCN(CC)C(=O)c1cccc(C)c1 [N,N-Diethyl m-toluamide]	not stable	highly instable
